This is an account of results in ChEMBL document CHEMBL2434849, “The development of bis(hydroxymethyl)pyrrole analogs as bifunctional DNA cross-linking agents and their chemotherapeutic potential” (Eur J Med Chem, 2013).

As usually defined, the T/C is the result in the treated group divided by that in the control group, in per cent. Broadly, the IC50 is the point on the concentration scale where inhibition reaches its midpoint.

The structures appear in SMILES notation.

For assay [1], the system named is P388. Briefly: Antitumor activity against mouse P388 cells graft model at 7.5 mg/kg, ip qd for 5 days. The format is functional. The settings on record: route intraperitoneal.
Another assay deals with B16. Description: Antitumor activity against mouse B16 cells graft model at 12.5 mg/kg, ip qd for 9 days. The format is functional. The settings on record: route intraperitoneal.
For the next assay, the system named is MCF7. Description: Cytotoxicity against human MCF7 cells. The format is functional, cell-based.
Assay [2] in a line: Cytotoxicity against human H460 cells. The format is functional, cell-based. The conditions noted are these: NCI-H460.
Assay [3] deals with P388. Briefly: Antitumor activity against mouse P388 cells assessed as increase in life span of host. The class given is functional.
Another assay has as its system HL-60. Briefly: Cytotoxicity against human HL60 cells. The class given is functional, cell-based.
A further assay deals with PC-3. Description: Cytotoxicity against human PC3 cells. The format is functional, cell-based.

For `COc1ccc2c(c1)CCn1c(C)c(COC(=O)NC(C)C)c(COC(=O)NC(C)C)c1-2`, the results for the T/C in the assay on P388 [1] and with B16 were 232% and 180%, respectively.
Turning to `CNC(=O)OCc1c(COC(=O)NC)c(-c2ccc(OC)cc2)n2c1Cc1ccccc1-2`, the IC50 worked out at 20 µM in the assay on MCF7 and 82.1 µM in assay [2].
In the case of `Cc1c(COC(=O)NC(C)C)c(COC(=O)NC(C)C)c2n1CS(=O)(=O)C2`, in the assay with P388 [3], the Activity worked out at 118%.
In the case of `CC(C)NC(=O)OCc1c(COC(=O)NC(C)C)c(-c2ccc(Cl)cc2)n2c1SCC2`, the IC50 in the assay on HL-60 was determined as 0.85 µM.
Compound `CC(C)NC(=O)OCc1c(COC(=O)NC(C)C)c(-c2ccc(Cl)c(Cl)c2)n2c1CCC2` registered an IC50 in the assay on HL-60 of 1.5 µM.
On to `CC(C)NC(=O)OCc1c(COC(=O)NC(C)C)c(-c2ccccc2)n2c1SCC2`, for which the IC50 in the assay with HL-60 was found to be 1.5 µM.
In the case of `CCNC(=O)OCc1c(COC(=O)NCC)c(-c2ccc(OC)cc2)n2c1Cc1ccccc1-2`, the IC50 was found to be 25.9 µM in the assay with MCF7, 30.2 µM with PC-3 and 13.2 µM in assay [2].
For `CC(C)NC(=O)OCc1c(COC(=O)NC(C)C)c(-c2ccc(F)cc2)n2c1SCC2`, the half-maximal inhibitory concentration (IC50) in the assay on HL-60 came out at 1.6 µM.
For the compound `COc1ccc(-c2c(COC(=O)NC(C)C)c(COC(=O)NC(C)C)c3n2-c2ccccc2C3)cc1`, the IC50 was found to be 34.2 µM with MCF7, 23.2 µM with PC-3 and 20.3 µM in assay [2].
